Experimental data from article PMC7401407, “Development of WEE2 kinase inhibitors as novel non-hormonal female contraceptives that target meiosis” (Biology of Reproduction, 2020).
Entries after “also recorded” stand apart in the source; their conditions may differ.

How the values were obtained:
[1] = system: T1, recombinant WEE2 protein; test: ELISA of CDK1 phosphorylation (CycLex kit), WEE2; format: biochemical, human; details: 1 μM inhibitor, 60 min at 30 °C
T1 construct: made in house

[2] = system: HEK 293 cells; test: Somatic cell proliferation assay (dye dilution, flow cytometry); format: cell-based
Description: To determine off-target effects of inhibitors on somatic cell WEE1, a proliferation assay was used as previously reported [22]. […] Independent cell cultures were collected at 0-, 48-, 72-, and 96-h post loading with a membrane permeable fluorophore, cell trace violet dye (Cat# C34557; ThermoFisher, Waltham, MA), which diminishes in concentration within the cell after each progressive division. Duplicate samples were collected and fixed for analysis by flow cytometry.
To evaluate the biological off-target effect of candidate inhibitors on mitosis, we use somatic cell culture and flow cytometry to assess proliferation disruption. […] Prior to each culture experiment, we treat the cells with a membrane permeable fluorescent dye to track cellular division activity. As cells divide the dye becomes diluted and the fluorescent signal decreases. We use flow cytometry, with at least 20 000 events counted to measure fluorescence intensity to indicate changes in cell proliferation in the presence of inhibitors [38]. The more inhibitory a drug, the more dye will be retained in the cells and so comparison can be made to controls to determine the level of mitotic activity.

[3] = system: MYT1 (PKMYT1); set-up: method as in PMID 28792760; details: direct binding studies; cited from earlier work
[4] = system: T2, human WEE1 protein; test: ELISA of CDK1 phosphorylation (CycLex WEE1 Kinase Assay/Inhibitor Screening Kit), WEE1; format: biochemical; details: 1 μM inhibitor, 60 min at 30 °C
T2 construct: purchased MBL International CYE1172

[5] = system: bovine oocytes; test: Bovine in vitro fertilization (exit from metaphase II arrest); format: cell-based

For `C=CCn1c(=O)c2cnc(Nc3ccc(N4CCN(C)CC4)cc3)nc2n1-c1cccc(C(C)(C)O)n1` [MK-1775, Adavosertib], the “WEE2 phosphorylation activity of CDK1” value [1] was “significantly reduces; also recorded: significantly inhibits”, the “somatic cell division activity (mitosis)” value ([2]; HEK 293, 0.01 μM) was “decrease in mitosis” and the “somatic cell division activity (mitosis)” value ([2]; HEK 293, 0.1 μM) was “decrease in mitosis”. The “somatic cell division activity (mitosis)” value ([2]; HEK 293, 1 μM) was “inhibited mitosis in somatic cell culture after 48 h; also recorded: arrested the cell culture”, the “activity against MYT1 relative to WEE1 and WEE2” value [3] was “significantly weaker activity” and the “WEE1 phosphorylation activity of CDK1” value [4] was “significantly reduces; also recorded: significantly inhibits”. The “proportion of oocytes undergoing normal fertilization” value ([5]; 1 μM prior to and during IVF) was “reduction in the proportion of oocytes undergoing normal fertilization” and the “reduction of MII exit compared to DMSO” value ([5]; bovine oocytes co-cultured with inhibitor during IVF, N = 126) was 16%.
